Test results taken from patent US20190159457A1, “Combinatorial Compositions of Benzoxaboroles and Biologic Agents” (Boragen, Inc., priority 2017, published 2019).

How the values were obtained:
Format in all cases: cell-based
Bacillus subtilis = assay: Toxicity of oxaborole compound on Bacillus subtilis (MIC); settings: 48 hours, about 37 °C, 1×10^5 CFU/mL
Procedure: The final concentration of Bacillus subtilis was 1×10^5 CFU/mL.
Plates sealed with clear polyester film (VWR) were incubated at a temperature of about 37° C. The progress of Bacillus subtilis growth was monitored at 48 hours.

[1] = test system: Sclerotinia sclerotiorum 1980 (Ss1980); assay: Inhibition rate of fungal hyphae growth on PDA petri dish; settings: Bacillus subtilis −
Procedure: (§1) The synergistic or additive effect of Bacillus subtilis in combination with an oxaborole compound on fungicidal compounds was evaluated by determining the inhibition rate of fungal growth on a petri dish. The oxaborole compound used for the example was BAG8. The inhibition rate was calculated as: inhibition %=(X−Y)/X*100, where X is the diameter of fungal hyphae grown on control without any fungicidal compound or beneficial bacteria.
(§2) The ability of Bacillus subtilis to inhibit growth of the four example fungal pathogens was evaluated by determining the inhibition rate of fungal hyphae on the PDA petri dishes (diameter of 100 mm) with the bacteria (initial bacterial cells: 2000CFU). 0.2 mL of Bacillus subtilis (lx 10^3, 1×10^4, 1×10^5, 1×10^6FU/mL) was spread on the PDA plates. The plates were cultured at 37° C. overnight, followed by inoculating the fresh fungal agar plugs ( 3/16 inch, diameter). The PDA plates with fungal agar plugs were cultured at 25° C. for 4-7 days, and then diameters of hyphae were measured. The inhibition rate was calculated as: inhibition %=(X−Y)/X*100, where X is the diameter of fungal hyphae grown on control without the bacteria. Inhibition rate of 100% means that the fungus cannot grow on PDA medium.
(§3) Testing was performed to compare inhibition performance of BAG8 by itself versus BAG8 in combination with Bacillis subtilis. Initially, the PDA plates (diameter of 100 mm) were prepared with various concentrations (0, 0.2, 0.5, 1, 2, 5 and 10 ug/mL) of the BAG8 compound;
(§4) Then, 0.2 mL of Bacillus subtilis (1×10^4CFU/mL) were spread onto some of the PDA plates with fungicide compounds. The […] Botrytis cinerea, Fusarium oxysporum f sp. Cubense, Mycosphaerella graminicola, and Sclerotinia sclerotiorum.
(§5) The PDA plates with the combined BAG8 and Bacillus subtilis were inoculated with the fresh fungal agar plugs ( 3/16 inch, diameters) and the plates were cultured at 25° C. for 4-7 days, and then diameters of hyphae were measured. The inhibition rate was calculated as: inhibition %=(X−Y)/X*100, where X is the diameter of fungal hyphae grown on control without the bacteria.

[2] = test system: Mycosphaerella graminicola (SLB); assay: as above; settings: Zymoseptoria tritici, Bacillus subtilis −
Procedure: as §1, §2, §3, §4, §5

[3] = test system: Botrytis cinerea B05.10 (B05.10); assay: as above; settings: Bacillus subtilis −
Procedure: as §1, §2, §3, §4, §5

[4] = test system: Fusarium oxysporum f sp. cubense tropical race 4 (FOC.TR4); assay: as above; settings: Bacillus subtilis −
Procedure: as §1, §2, §3, §4, §5

## OB1OCc2cc(Cl)ccc21 [BAG8, 5-chlorobenzo[c][1,2]oxaborol-1(3H)-ol]
Bacillus subtilis
  MIC: > 25 mg/L
[1]; BAG8 0.2 ug/mL
  inhibition at 0.2 µg/mL: 12%
[1]; BAG8 0.5 ug/mL
  inhibition at 0.5 µg/mL: 48%
[1]; BAG8 1 ug/mL
  inhibition at 1 µg/mL: 94%
[1]; BAG8 2 ug/mL
  inhibition at 2 µg/mL: 98%
[2]; BAG8 0.2 ug/mL
  inhibition at 0.2 µg/mL: 6%
[2]; BAG8 0.5 ug/mL
  inhibition at 0.5 µg/mL: 38%
[2]; BAG8 1 ug/mL
  inhibition at 1 µg/mL: 93%
[2]; BAG8 2 ug/mL
  inhibition at 2 µg/mL: 96%
[3]; BAG8 0.2 ug/mL
  inhibition at 0.2 µg/mL: 10%
[3]; BAG8 0.5 ug/mL
  inhibition at 0.5 µg/mL: 23%
[3]; BAG8 1 ug/mL
  inhibition at 1 µg/mL: 69%
[3]; BAG8 2 ug/mL
  inhibition at 2 µg/mL: 98%
[4]; BAG8 0.2 ug/mL
  inhibition at 0.2 µg/mL: 9%
[4]; BAG8 0.5 ug/mL
  inhibition at 0.5 µg/mL: 47%
[4]; BAG8 1 ug/mL
  inhibition at 1 µg/mL: 95%
[4]; BAG8 2 ug/mL
  inhibition at 2 µg/mL: 94%
